According to patent publication US9329192B2, “Polymer-coupled peptidases” (SENOVA GESELLSCHAFT FUR BIOWISSENSCHAFT UND TECHNIK MBH, priority 2010, dated 2016):

Tested on: heparin in combination with antithrombin of plasma
Assay: Influence of heparin in plasma on amidolytic activity, chromogenic thrombin assay
Type: biochemical
Settings: increasing concentrations of heparin in citrated plasma, substrate H-D-Chg-Ala-Arg-pNA
Protocol: The influence of heparin (Sigma, H-3393) on the amidolytic activity of PEG 5 kD-thrombin conjugate in plasma was compared with its influence on the amidolytic activity of unmodified thrombin using the chromogenic assay for quantitative determination of direct thrombin inhibitors (Example 5): 15 μl of a plasma sample (citrated plasma) were added to 50 μl chromogenic substrate (H-D-Chg-Ala-Arg-pNA, JenAffin GmbH, 3 mM in 0.05M Tris/HCl, 0.1M NaCl, pH 8.0 at 37° C.). Chromogenic reaction was started by addition of 100 μl PEG 5 kD-thrombin conjugate or thrombin, respectively. Increase in optical density (release of p-nitroaniline by cleavage of the chromogenic substrate) was recorded at 405 nm using the measurement device TC4+ (TECO GmbH).

| Substance | influence of heparin on amidolytic activity |
| --- | --- |
| thrombin: bovine factor IIa (thrombin, EC 3.4.21.5, Kordia), unmodified | inhibit amidolytic activity |
| PEG 5 kD-thrombin conjugate: bovine factor IIa (thrombin) coupled with methoxy polyethylene glycol (PEG)-5,000 p-nitrophenyl carbonate | does not influence amidolytic activity |
